What was measured:
[1] = Mouse pharmacokinetics, i.v. and p.o.; assay type: in vivo; settings: plasma, male C57BL/6 mice; for AUC at 4 h / Cmax at 4 h / Tmax at 4 h / Vd at 4 h / clearance at 4 h / bioavailability at 4 h: iv; for AUC at 4 h / Cmax at 4 h / Tmax at 4 h / Vd at 4 h / clearance at 4 h: i.v. 3 mg/kg; for AUC at 8 h / Cmax at 8 h / Tmax at 8 h: po, p.o. 10 mg/kg
Description: Male C57BL/6 mice, weighing 22–24 g, were used (Charles River). All procedures were performed in accordance with the Ethical Guidelines of European Communities Council (Directive 2010/63/EU of 22 September 2010) and accepted by the Italian Ministry of Health. All efforts were made to minimize animal suffering and to use the minimal number of animals required to produce reliable results, according to the “3Rs concept”. Animals were group-housed in ventilated cages and had free access to food and water. They were maintained under a 12 h light/dark cycle (lights on at 8:00 am) at controlled temperature (21 ± 1 °C) and relative humidity (55 ± 10%).
Compound 39 or 50 was administered p.o. and i.v. to C57BL/6 male mice at 10 and 3 mg/kg. The vehicle used was PEG400/Tween 80/saline solution at 10/10/80% in volume, respectively. Three animals per each time point were treated. Blood samples at 0, 15, 30, 60, 120, 240, and 480 min after administration were collected for the p.o. arm. Blood samples at 0, 5, 15, 30, 60, 120, and 240 min after administration were collected for the i.v. arm. Plasma was separated from blood by centrifugation for 15 min at 1500 rpm a 4 °C, transferred to Eppendorf tubes, and frozen (−80 °C). Control animals treated with vehicle only were also included in the experimental protocol.
Plasma samples were centrifuged at 21,100g for 15 min at 4 °C. An aliquot of each sample was extracted (1:3) with cold CH3CN containing 200 nM of an appropriate internal standard as a close analogue of the parent compound (for compound 39: (1R,3r,5S)-3-(4-phenylphenoxy)-8-((3,5-dimethyl-1H-pyrazol-4-yl)sulfonyl)-8 azabicyclo[3.2.1]octane; for compound 50: (1R,3r,5S)-3-((5-methylpyrazin-2-yl)oxy)-8-((3,5-dimethyl-1H-pyrazol-4-yl)sulfonyl)-8-azabicyclo[3.2.1]octane). A calibration curve was obtained in blank mouse plasma over a 1 nM to 10 μM range. Three quality controls were prepared by spiking the parent compound in blank mouse plasma to 20, 200, and 2.000 nM, as final concentrations. The calibrators and quality controls were extracted (1:3) with the same extraction solution as the plasma sample. The plasma samples, the calibrators, and quality controls were centrifuged at 3.270g for 15 min at 4 °C. The supernatants were further diluted (1:1) with H2O + 0.1% HCOOH, and analyzed by LC–MS/MS on a Waters ACQUITY UPLC-MS TQD system consisting of a Triple Quadrupole Detector (TQD) Mass Spectrometer equipped with an Electrospray Ionization interface and a Photodiode Array eλ Detector from Waters Inc. (Milford, MA, USA). Electrospray ionization was applied in positive mode. Compound-dependent parameters such as MRM transitions and collision energy were developed for the parent compound and the internal standard. The analyses were run on an ACQUITY UPLC BEH C18 (50 × 2.1 mm ID, particle size 1.7 μm) with a VanGuard BEH C18 precolumn (5 × 2.1 mm ID, particle size 1.7 μm) at 40 °C. The mobile phase was H2O + 0.1% HCOOH (A) and CH3CN + 0.1% HCOOH (B) at a flow rate = 0.5 mL/min. A linear gradient was applied starting at 10% B with an initial hold for 0.2 min, then 10–100% B in 2 min. All samples (plasma samples, calibrators, and quality controls) were quantified by the MRM peak area response factor in order to determine the levels of the parent compound in plasma. The concentrations versus time were plotted and the profiles were fitted using PK Solutions Excel Application (Summit Research Service, USA) in order to determine the pharmacokinetic parameters.

[2] = Plasma stability assay, mouse plasma; assay type: in vitro ADME; settings: for % compound remaining at last time-point, plasma: 2.0 μM, 120 min; for half-life at 2 μM: n ≥ 3, read-out: plasma t1/2
Description: 10 mM DMSO stock solution of test compound (39 or 50) was diluted 50-fold with DMSO/H2O (1:1) and incubated at 37 °C for 2 h with mouse or rat plasma added with 5% DMSO (preheated at 37 °C for 10 min). The final compound’s concentration was 2.0 μM. At each time point (0, 5, 15, 30, 60, and 120 min), 50 μL of incubation mixture was diluted with 150 μL cold CH3CN spiked with 200 nM of warfarin, as the internal standard, followed by centrifugation at 3.270g for 20 min. The supernatant was further diluted with H2O (1:1) and analyzed by LC–MS/MS on a Waters ACQUITY UPLC-MS TQD system consisting of a triple quadrupole detector (TQD) mass spectrometer equipped with an electrospray ionization interface and a photodiode array eλ detector (PDA) from Waters Inc. (Milford, MA, USA). Electrospray ionization was applied in positive mode. Compound-dependent parameters as MRM transitions and collision energy were developed for each compound. The analyses were run on an ACQUITY UPLC BEH C18 (50 × 2.1 mm ID, particle size 1.7 μm) with a VanGuard BEH C18 precolumn (5 × 2.1 mm ID, particle size 1.7 μm) at 40 °C, using H2O + 0.1% HCOOH (A) and CH3CN + 0.1% HCOOH (B) as the mobile phase. The percentage of the test compound remaining at each time point relative to t = 0 was calculated by the response factor on the basis of the internal standard peak area. The percentage of test compound versus time was plotted and fitted by GraphPad Prism (GraphPad Software, Version 5 for Windows, CA, USA, www.graphpad.com) to estimate the compound’s half-life (t1/2), which was reported as mean value along with the standard deviation (n = 3).

[3] = p.o. 10 mg/kg vs i.v. 3 mg/kg, read-out: F (oral bioavailability)

| SMILES | AUC at 4 h [1] | Cmax at 4 h [1] | Tmax at 4 h [1] | Vd at 4 h [1] | clearance at 4 h [1] | bioavailability at 4 h [1, 3] | AUC at 8 h [1] | Cmax at 8 h [1] | Tmax at 8 h [1] | % compound remaining at last time-point, plasma [2] | half-life at 2 μM [2] | bioavailability ([1]; oral, p.o. 10 mg/kg vs i.v. 3 mg/kg, read-out: F (oral bioavailability)) |
| --- | --- | --- | --- | --- | --- | --- | --- | --- | --- | --- | --- | --- |
| CCCCc1ccc(O[C@H]2C[C@H]3CC[C@@H](C2)N3S(=O)(=O)c2c(C)n[nH]c2C)cc1 [Compound 39, (1R,3r,5S)-3-(4-Butylphenoxy)-8-((3,5-dimethyl-1H-pyrazol-4-yl)sulfonyl)-8-azabicyclo[3.2.1]octane] | 347 ng·h/mL | 702 ng/mL | 5 min | 4.45 L/kg | 144 mL/min/kg | 30% | 346 ng·h/mL | 297 ng/mL | 30 min | 93% | > 120 min |  |
| CCOCc1cnc(O[C@H]2C[C@H]3CC[C@@H](C2)N3S(=O)(=O)c2c(C)n[nH]c2C)cn1 [Compound 50, (1R,3r,5S)-8-((3,5-Dimethyl-1H-pyrazol-4-yl)sulfonyl)-3-((5-(ethoxymethyl)pyrazin-2-yl)oxy)-8-azabicyclo[3.2.1]octane] | 3370 ng·h/mL | 5240 ng/mL | 5 min | 0.53 L/kg | 13 mL/min/kg | 60% | 6790 ng·h/mL | 6870 ng/mL | 15 min | 95% | > 120 min | ~60% |

Source: publication PMC8474119, “Discovery and SAR Evolution of Pyrazole Azabicyclo[3.2.1]octane Sulfonamides as a Novel Class of Non-Covalent N-Acylethanolamine-Hydrolyzing Acid Amidase (NAAA) Inhibitors for Oral Administration” (Journal of Medicinal Chemistry, 2021)
